Two molecules from publication PMC5266694, “Identification of Key Residues in the NisK Sensor Region for Nisin Biosynthesis Regulation” (Frontiers in Microbiology, 2017) can be followed below.

The test system of one test is NisK mutant Y113A. Put plainly: Far-Western blotting, b-nisin binding to NisK mutant. Details: species or system Lactococcus lactis. Particulars: membrane protein of strain Y113A; biotin-labelled nisin, HRP-streptavidin. The procedure:
(§1) Lactococcus lactis MG1363 RKNlacZ mutant cells were harvested from 500 ml broth when OD600 reached 0.6–0.7, washed with PBS buffer (pH 7.4) once and resuspended in 20 ml PBS buffer. After lysing by sonication, cells were centrifuged at 6,000 g for 1 h to remove intact cells. The supernatant was ultra-centrifuged at 120,000 g for 2 h to separate soluble (cytoplasmic fraction) and insoluble (cell membrane fraction) proteins.
(§2) Nisin was labeled by biotin according to the method shown by ([Koteva et al., 2010]) in Beijing Biosynthesis Biotechnology Co., Ltd.. Briefly, nisin peptide was resolved by NaHCO3 (0.1 M, pH = 9.0) and incubated with biotin. Nisin labeled with biotin was purified by High Performance Liquid Chromatography and was named as b-nisin. The insoluble (cell membrane fraction) proteins were separated from L. lactis MG1363 RKNlacZ mutant cells. Far-Western blotting assays were performed using a modified protocol as described by ([Wu Y. et al., 2007]). Briefly, the insoluble proteins were firstly separated by SDS-PAGE, and transferred to a PVDF membrane as in a standard Western blotting. The proteins in the membrane were then denatured and renatured. The membrane is then blocked and probed with b-nisin. The horseradish peroxidase (HRP) conjugated streptavidin was used as the secondary antibody, and the lanes indicating b-nisin binding to NisK or NisK mutants were detected by photographic film.
(§3) In order to clarify whether the important residues in NisK affected the interaction between nisin and NisK, the membrane proteins from L. lactis MG1363 RKNlacZ strain and the mutant strain M66A, D72A, Y113A, F133A, 69–73A5, and 74–76A3 were extracted. Nisin was labeled by biotin, and the modified product was named by b-nisin. The interaction between b-nisin and membrane proteins was studied by far-Western blotting assay.

Another test relates to NisK mutant M66A. The test is described as above. Details: species or system Lactococcus lactis. Particulars: membrane protein of strain M66A; biotin-labelled nisin, HRP-streptavidin. The procedure: as §1, §2, §3
For a further test, the system named is NisK mutant D72A. Described as above. Particulars: membrane protein of strain D72A; biotin-labelled nisin, HRP-streptavidin. Details: species or system Lactococcus lactis. As to the method:
as §1, §2, §3

For the next test, the system named is NisK mutant F133A. The description is as above. Also on record: species or system Lactococcus lactis. Particulars: membrane protein of strain F133A; biotin-labelled nisin, HRP-streptavidin. As to the method: as §1, §2, §3
The next test deals with NisK mutant 69–73A5. The description is as above. Details: species or system Lactococcus lactis. Particulars: membrane protein of strain 69–73A5; biotin-labelled nisin, HRP-streptavidin. The procedure: as §1, §2, §3
The next test deals with NisK mutant 74–76A3. Described as above. Details: species or system Lactococcus lactis. Particulars: membrane protein of strain 74–76A3; biotin-labelled nisin, HRP-streptavidin. As to the method: as §1, §2, §3
For a further test, the system named is NisK. Put plainly: Far-Western blotting, b-nisin binding to NisK. Also on record: species or system Lactococcus lactis. Particulars: membrane proteins of L. lactis MG1363 RKNlacZ, SDS-PAGE, PVDF, denatured and renatured; biotin-labelled nisin, HRP-streptavidin detection. As to the method:
as §1
as §2, with “The membrane is then blocked and probed with b-nisin.” left out, “film. […]” for “film.”

For test [1], the target named is T1, His6-NisKex (NisK extracellular region) (Lactococcus lactis CV56, UniProt P42707 36-144).
T1 construct: source: E. coli (pET28a), purified
T1 sequence (looked up): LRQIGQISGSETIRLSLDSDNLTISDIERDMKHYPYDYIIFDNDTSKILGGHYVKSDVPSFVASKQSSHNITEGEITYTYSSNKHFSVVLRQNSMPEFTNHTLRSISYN
Put plainly: SPR; BIACORE3000; His6-NisKex immobilised on a CM5 chip by amide coupling to 1000 RU; nisin in HBS-T as analyte, 260 to 8.125 μM in twofold dilution, 30 μl/min, 25°C; 1:1 (Langmuir) model with local fitted Rmax. Particulars: both partners purified.

Where no end group is shown, it is not given here.

In the case of “b-nisin: Nisin labeled with biotin, purified by High Performance Liquid Chromatography (ITSISLCTPGCKTGALMGCNMKTATCHCSIHVSK; ends and bridges not checked; also: labelled with biotin, site not given here)”, the “binding to NisK mutant on far-Western blot” value in the test with NisK mutant Y113A, in the test on NisK mutant M66A, in the test with NisK mutant D72A, with NisK mutant F133A, with NisK mutant 69–73A5 and in the test on NisK mutant 74–76A3 was “did not show b-nisin binding bands” throughout. The “binding to NisK on far-Western blot” value with NisK is listed as “labeled a membrane protein of about 51.5 kDa”.

B1: nisin (peptide, UniProt P13068 24-57, looked up)
peptide: ITSISLCTPGCKTGALMGCNMKTATCHCSIHVSK
notes: also called signal peptide nisin; nisin A; source: purified from commercial nisin product (Yinxiang, Zhejiang, China)
In general, koff refers to a measure of how fast the partners let go of each other. Higher therefore signals fast dissociation. What is called kon is the second-order rate constant of association. In the case of B1, in test [1], the koff amounted to 1 s⁻¹ and the on-rate (kon) was 65.2 M⁻¹ s⁻¹.
